Laboratory results as given in ChEMBL document CHEMBL1201862, “PubChem BioAssay data set” (2004).
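Interpolation was linear, between the two tested concentrations surrounding the appropriate level; five concentrations were tested over 48 hours in 96-well plates. GI50: concentration for 50% inhibition of growth.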 Active and inactive are the calls of the source. Cut-off read from the data, not from the text of the source: active = GI50 up to about 1.1 µM and inactive = higher.

Columns and labels:
Assay in all cases: inhibition of tumour cell growth, NCI panel, 48 h
A549 = tested on: A549
CAKI-1 = tested on: CAKI-1
DU-145 = tested on: DU-145
HCT-116 = tested on: HCT-116
Hs-578T = tested on: Hs-578T
K562 = tested on: K562
LOX IMVI = tested on: LOX IMVI
MDA-MB-435 = tested on: MDA-MB-435
OVCAR-3 = tested on: OVCAR-3
OVCAR-4 = tested on: OVCAR-4
OVCAR-5 = tested on: OVCAR-5
PC-3 = tested on: PC-3
SF-295 = tested on: SF-295
SF-539 = tested on: SF-539
SK-MEL-28 = tested on: SK-MEL-28
SK-OV-3 = tested on: SK-OV-3
SW-620 = tested on: SW-620
TK-10 = tested on: TK-10

Row | SMILES | GI50 (A549) | GI50 (CAKI-1) | GI50 (DU-145) | GI50 (HCT-116) | GI50 (Hs-578T) | GI50 (K562) | GI50 (LOX IMVI) | GI50 (MDA-MB-435) | GI50 (OVCAR-3) | GI50 (OVCAR-4) | GI50 (OVCAR-5) | GI50 (PC-3) | GI50 (SF-295) | GI50 (SF-539) | GI50 (SK-MEL-28) | GI50 (SK-OV-3) | GI50 (SW-620) | GI50 (TK-10)
1 | N=C(N)N/N=C(/c1ccccc1)c1ccc(O)cc1O | 38.1 µM (inactive) | 51.5 µM (inactive) | 33 µM (inactive) | 29 µM (inactive) | 22 µM (inactive) | 46.3 µM (inactive) | 34.9 µM (inactive) | 19.1 µM (inactive) | 26.9 µM (inactive) | 57 µM (inactive) | 33 µM (inactive) | 29 µM (inactive) | 28.2 µM (inactive) | 18.5 µM (inactive) | 72.6 µM (inactive) | 33.4 µM (inactive) | 36.7 µM (inactive) | 31.6 µM (inactive)
2 | Cc1csc2nc(-c3ccc(Cl)c([N+](=O)[O-])c3)c(/C=N/NC(=N)N)n12 | 1.83 µM (inactive) | 1.83 µM (inactive) | 2.16 µM (inactive) | 1.68 µM (inactive) | 1.4 µM (inactive) |  | 1.51 µM (inactive) | 1.69 µM (inactive) | 1.96 µM (inactive) | 1.64 µM (inactive) | 1.21 µM (inactive) | 1.48 µM (inactive) | 1.4 µM (inactive) | 1.61 µM (inactive) | 1.82 µM (inactive) | 1.84 µM (inactive) | 0.384 µM (active) | 2.2 µM (inactive)
3 | O=c1[nH]ncc2[nH]c3c(c12)CCc1ccccc1-3 | 29 µM (inactive) | 21.5 µM (inactive) | 38 µM (inactive) | 24.7 µM (inactive) | 10.4 µM (inactive) | 28.9 µM (inactive) | 22.5 µM (inactive) | 24.9 µM (inactive) | 28.2 µM (inactive) | 32.1 µM (inactive) | 44.3 µM (inactive) | 27.2 µM (inactive) | 37.8 µM (inactive) | 18.5 µM (inactive) | 39.9 µM (inactive) | 24.6 µM (inactive) | 34.4 µM (inactive) | 27.6 µM (inactive)
4 | O=C(/C=C/c1ccsc1)c1ccsc1 | 38.2 µM (inactive) | 20.9 µM (inactive) | > 100 µM (inactive) | 16.2 µM (inactive) | 27.8 µM (inactive) | > 10 µM (inactive) | 19.1 µM (inactive) | 22.5 µM (inactive) |  | 37.2 µM (inactive) |  | 19.8 µM (inactive) | 40.7 µM (inactive) | 17.5 µM (inactive) | 37.1 µM (inactive) | > 100 µM (inactive) | 24.8 µM (inactive) | 23.8 µM (inactive)
5 | Cc1cccc(/N=N/c2c(C)nn(C(=O)CC(=O)Nc3ccc(Cl)cc3)c2C)c1 | > 100 µM (inactive) | > 100 µM (inactive) | > 100 µM (inactive) | 67.1 µM (inactive) | 23.8 µM (inactive) |  | 95.5 µM (inactive) | > 100 µM (inactive) | 82.4 µM (inactive) | > 100 µM (inactive) | 45.6 µM (inactive) | 69 µM (inactive) | > 100 µM (inactive) | > 100 µM (inactive) | > 100 µM (inactive) | 65.6 µM (inactive) | > 100 µM (inactive) | > 100 µM (inactive)
6 | N#CCCN(CCC#N)c1ccc(C(/N=N/c2ccc(Cl)cc2)=N\c2ccccc2)cc1 | 14.1 µM (inactive) | 12.2 µM (inactive) | 13.4 µM (inactive) | 12.1 µM (inactive) | 18.9 µM (inactive) | 41.7 µM (inactive) |  | 11 µM (inactive) | 9.77 µM (inactive) | 11.6 µM (inactive) | 12.4 µM (inactive) | 12.6 µM (inactive) | 1.06 µM (active) | 14.9 µM (inactive) | 15.3 µM (inactive) | 13.2 µM (inactive) | 18 µM (inactive) | 15.5 µM (inactive)
7 | COC(=O)CC1C(COC(C)=O)OC(n2cc(C)c(=O)[nH]c2=O)C1OC(C)=O (configuration not stated) | > 100 µM (inactive) | > 100 µM (inactive) | > 100 µM (inactive) | > 100 µM (inactive) | 4.73 µM (inactive) |  | > 100 µM (inactive) | > 100 µM (inactive) | > 100 µM (inactive) | > 100 µM (inactive) | > 100 µM (inactive) | > 100 µM (inactive) | > 100 µM (inactive) | > 100 µM (inactive) | > 100 µM (inactive) | > 100 µM (inactive) | > 100 µM (inactive) | > 100 µM (inactive)
8 | COc1ccc(C(=O)/C=C/c2ccc3c(c2)OCO3)c(OCc2ccccc2)c1 | 47.3 µM (inactive) | 11.8 µM (inactive) | > 39.2 µM (inactive) | 6.79 µM (inactive) | 7.82 µM (inactive) | 12.5 µM (inactive) | 7.89 µM (inactive) | 25.5 µM (inactive) | 19.1 µM (inactive) | 15.1 µM (inactive) | > 76.7 µM (inactive) | 11.6 µM (inactive) | > 61.8 µM (inactive) | 32.7 µM (inactive) | > 100 µM (inactive) | > 54.8 µM (inactive) | 8.71 µM (inactive) | > 90.8 µM (inactive)
9 | COc1ccc(/C=C/c2cnnc3ccccc23)cc1OC | > 10 µM (inactive) | > 10 µM (inactive) | > 10 µM (inactive) | > 10 µM (inactive) | > 10 µM (inactive) | > 10 µM (inactive) | > 10 µM (inactive) | > 10 µM (inactive) | > 10 µM (inactive) | > 10 µM (inactive) | > 10 µM (inactive) | > 10 µM (inactive) | > 10 µM (inactive) | > 10 µM (inactive) | > 10 µM (inactive) | > 10 µM (inactive) | > 10 µM (inactive) | > 10 µM (inactive)
10 | Oc1c(Cl)c(Cl)c(O)c(CCNc2ccc3ncccc3c2)c1Cl | 17.2 µM (inactive) | 12.6 µM (inactive) | 21.5 µM (inactive) | 14.5 µM (inactive) | 5.04 µM (inactive) | 3.47 µM (inactive) |  | 5.2 µM (inactive) | 15.5 µM (inactive) | 79.6 µM (inactive) | 20.9 µM (inactive) | 28 µM (inactive) | 11.4 µM (inactive) | 12.5 µM (inactive) | 24.5 µM (inactive) | 11.8 µM (inactive) | 4.63 µM (inactive) | 13.4 µM (inactive)
11 | CSc1ncc2c(C#N)c3n(C)c4ccccc4n3c(=O)c2n1 | > 100 µM (inactive) | > 100 µM (inactive) | > 100 µM (inactive) | > 100 µM (inactive) | > 100 µM (inactive) | > 100 µM (inactive) | > 100 µM (inactive) | > 100 µM (inactive) | > 100 µM (inactive) | > 100 µM (inactive) | > 100 µM (inactive) | > 100 µM (inactive) | > 100 µM (inactive) | > 100 µM (inactive) | > 100 µM (inactive) | > 100 µM (inactive) | > 100 µM (inactive) | > 100 µM (inactive)
12 | COC1(OC)CCc2c(sc3ncnc(Nc4cccc(Br)c4)c23)C1 | 25.9 µM (inactive) | 30.6 µM (inactive) | 10.9 µM (inactive) | 39.3 µM (inactive) | > 100 µM (inactive) | 26.2 µM (inactive) | 35.7 µM (inactive) | 62.2 µM (inactive) | > 100 µM (inactive) | 27.7 µM (inactive) | 20.7 µM (inactive) | 43.3 µM (inactive) | 72.8 µM (inactive) | > 100 µM (inactive) |  | > 100 µM (inactive) | 21.7 µM (inactive) | 10.6 µM (inactive)
13 | O=C(c1ccccc1)c1ccc2c(c1)nc1n2C(c2c(Cl)cccc2Cl)SC1 (configuration not stated) | 32.7 µM (inactive) | 70.6 µM (inactive) | > 100 µM (inactive) | 29 µM (inactive) | 84.1 µM (inactive) |  | 44 µM (inactive) | 59.2 µM (inactive) | 38.8 µM (inactive) | 75.7 µM (inactive) | > 100 µM (inactive) | 38.1 µM (inactive) | 27.6 µM (inactive) | > 100 µM (inactive) | > 100 µM (inactive) | > 100 µM (inactive) | > 100 µM (inactive) | > 100 µM (inactive)
14 | NCC(O)CNCC/C=C\C/C=C\C/C=C\C/C=C\C/C=C\C/C=C\CCCCC/C=C\CCNCC(O)CN (configuration not stated) | 1.85 µM (inactive) | 2.08 µM (inactive) | 1.77 µM (inactive) | 1.78 µM (inactive) | 1.36 µM (inactive) | 2.29 µM (inactive) | 1.79 µM (inactive) | 1.65 µM (inactive) | 1.98 µM (inactive) | 1.93 µM (inactive) | 1.94 µM (inactive) | 1.92 µM (inactive) | 2.07 µM (inactive) | 1.9 µM (inactive) | 3.4 µM (inactive) | 2.64 µM (inactive) | 1.78 µM (inactive) | 1.57 µM (inactive)
15 | CC1=NN(c2cccc(Cl)c2)C2(SCC(=O)N2c2nc3ccccc3s2)/C1=C\c1ccccc1 (configuration not stated) |  | 20 µM (inactive) | 22 µM (inactive) | 15.9 µM (inactive) | 18.4 µM (inactive) | 17.6 µM (inactive) | 25.5 µM (inactive) | 18.3 µM (inactive) | 20.8 µM (inactive) | 16.7 µM (inactive) | 22.4 µM (inactive) | 23.6 µM (inactive) | 21.6 µM (inactive) | 26.4 µM (inactive) | 27.5 µM (inactive) | 19.9 µM (inactive) | 19.6 µM (inactive) | 40.6 µM (inactive)
16 | O=c1[nH]cc(F)c(=O)[nH]1 [FLUOROURACIL] | 2.11 µM (inactive) | 4.45 µM (inactive) | 9.29 µM (inactive) |  | 225 µM (inactive) | 21.2 µM (inactive) | 6.03 µM (inactive) | 10.6 µM (inactive) | 27.3 µM (inactive) | 69.7 µM (inactive) | 172 µM (inactive) | 50.6 µM (inactive) | 51.9 µM (inactive) | 1.33 µM (inactive) | 50.2 µM (inactive) | 171 µM (inactive) | 27.7 µM (inactive) | 136 µM (inactive)
